Earlier results, collected in US11707478B2, “Method for increasing uridine concentration in blood plasma” (N.V. Nutricia, priority 2016, dated 2023).

How the values were obtained:
CNT 1 = target: T1, CNT 1 (Homo sapiens, UniProt O00337); details: CNT 1 in the gut and in many other cells; read-out: apparent Km value of main transporter
T1 sequence (O00337 1-649): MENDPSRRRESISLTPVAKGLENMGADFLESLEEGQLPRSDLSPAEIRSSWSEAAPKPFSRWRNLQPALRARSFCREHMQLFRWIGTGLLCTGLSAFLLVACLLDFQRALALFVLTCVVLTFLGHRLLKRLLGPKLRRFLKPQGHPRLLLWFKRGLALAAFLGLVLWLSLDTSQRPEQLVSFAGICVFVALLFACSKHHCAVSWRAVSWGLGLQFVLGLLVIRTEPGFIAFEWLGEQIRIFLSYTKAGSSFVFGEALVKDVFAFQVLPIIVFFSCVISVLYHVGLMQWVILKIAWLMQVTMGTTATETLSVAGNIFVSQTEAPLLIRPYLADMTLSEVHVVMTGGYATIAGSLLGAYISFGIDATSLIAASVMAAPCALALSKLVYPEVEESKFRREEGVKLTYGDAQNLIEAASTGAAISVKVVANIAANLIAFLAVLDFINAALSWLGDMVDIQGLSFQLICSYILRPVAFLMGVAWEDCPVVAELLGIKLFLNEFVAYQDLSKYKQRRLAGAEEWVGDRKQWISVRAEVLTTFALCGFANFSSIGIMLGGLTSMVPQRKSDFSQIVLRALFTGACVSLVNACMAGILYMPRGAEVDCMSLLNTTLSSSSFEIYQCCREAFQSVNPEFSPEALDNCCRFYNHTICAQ

[1] = oral administration of uridine, Klubes 1986

Km (CNT 1): 6 to 16 µM
bioavailability [1]: about 7%
Structure (SMILES): O=c1ccn([C@@H]2O[C@H](CO)[C@@H](O)[C@H]2O)c(=O)[nH]1 [Uridine, 1-[(2R,3R,4S,5R)-3,4-dihydroxy-5-(hydroxymethyl)oxolan-2-yl]pyrimidine-2,4-dione]
